Results: patent US7101868B2, “Substituted arylamine derivatives and methods of use” (Amgen Inc., priority 2001, dated 2006)

Test system: VEGF-stimulated HUVEC proliferation (Human Umbilical Vein Endothelial cells)
Experiment: HUVEC Proliferation Assay
Assay type: cell-based
Settings: VEGF 50 ng/mL final, 72 h incubation, CyQuant fluorescent dye, read-out: inhibited VEGF-stimulated HUVEC proliferation at a level (IC50)
Procedure: Human Umbilical Vein Endothelial cells are purchased from Clonetics, Inc., as cryopreserved cells harvested from a pool of donors. These cells, at passage 1, are thawed and expanded in EBM-2 complete medium, until passage 2 or 3. The cells are trypsinized, washed in DMEM+10% FBS+antibiotics, and spun at 1000 rpm for 10 min. Prior to centrifugation of the cells, a small amount is collected for a cell count. After centrifugation, the medium is discarded, and the cells are resuspended in the appropriate volume of DMEM+10% FBS+antibiotics to achieve a concentration of 3×10^5 cells/mL. Another cell count is performed to confirm the cell concentration. The cells are diluted to 3×10^4 cells/mL in DMEM+10% FBS+antibiotics, and 100 μL of cells are added to a 96-well plate. The cells are incubated at 37° C. for 22 h.
Prior to the completion of the incubation period, compound dilutions are prepared. Five-point, five-fold serial dilutions are prepared in DMSO, at concentrations 400-fold greater than the final concentrations desired. 2.5 μL of each compound dilution are diluted further in a total of 1 mL DMEM+10% FBS+antibiotics (400× dilution). Medium containing 0.25% DMSO is also prepared for the 0 μM compound sample. At the 22-hour timepoint, the medium is removed from the cells, and 100 μL of each compound dilution is added. The cells are incubated at 37° C. for 2-3 h.
During the compound pre-incubation period, the growth factors are diluted to the appropriate concentrations. Solutions of DMEM+10% FBS+antibiotics, containing either VEGF or bFGF at the following concentrations: 50, 10, 2, 0.4, 0.08, and 0 ng/mL are prepared. For the compound-treated cells, solutions of VEGF at 550 ng/mL or bFGF at 220 ng/mL for 50 ng/mL or 20 ng/mL final concentrations, respectively, are prepared since 10 μL of each will be added to the cells (110 μL final volume). At the appropriate time after adding the compounds, the growth factors are added. VEGF is added to one set of plates, while bFGF is added to another set of plates. For the growth factor control curves, the media on wells B4-G6 of plates 1 and 2 are replaced with media containing VEGF or bFGF at the varying concentrations (50-0 ng/mL). The cells are incubated at 37° C. for an additional 72 h.
At the completion of the 72 h incubation period, the medium is removed, and the cells are washed twice with PBS. After the second wash with PBS, the plates are tapped gently to remove excess PBS, and the cells are placed at −70° C. for at least 30 min. The cells are thawed and analyzed using the CyQuant fluorescent dye (Molecular Probes C-7026), following the manufacturer's recommendations. The plates are read on a Victor/Wallac 1420 workstation at 485 nm/530 nm (excitation/emission). Raw data are collected and analyzed using a 4-parameter fit equation in XLFit. IC50 values are then determined.

| Compound | IC50 [nM] |
| --- | --- |
| O=C(Nc1ccc(C(F)(F)F)cc1)c1cccnc1NCc1ccc(F)cc1 [Example 34, (2-{[(4-Fluorophenyl)methyl]amino}(3-pyridyl))-N-(4-(trifluoromethyl)phenyl]carboxamide] | < 50 |
| O=C(Nc1cccc(C(F)(F)F)c1)c1cccnc1NCc1ccc(Br)cc1 [Example 25, (2-{[(4-Bromophenyl)methyl]amino}(3-pyridyl))-N-[3-(trifluoromethyl)phenyl]carboxamide] | < 50 |
| O=C(Nc1ccc(Oc2ccccc2)cc1)c1cccnc1NCc1ccc2c(c1)OCO2 [Example 41, {2-[(2H-Benzo[d]1,3-dioxol-5-ylmethyl)amino](3-pyridyl)}-N-(4-phenoxyphenyl)carboxamide] | < 50 |
| CC1(C)CN(C(=O)CN)c2cc(NC(=O)c3cccnc3NCc3ccc(F)cc3)ccc21 [Example 59, N-[1-(2-Amino-acetyl)-3,3-dimethyl-2,3-dihydro-1H-indol-6-yl]-2-(4-fluoro-benzylamino)-nicotinamide] | < 50 |
| CN(C)CCCc1cc(NC(=O)c2cccnc2NCc2ccc(F)cc2)cc(C(F)(F)F)c1 [Example 35, N-{3-[3-(Dimethylamino)propyl]-5-(trifluoromethyl)phenyl}(2-{[(4-fluorophenyl)methyl]amino}(3-pyridyl))carboxamide] | < 50 |
| O=C(Nc1cccc(C(F)(F)F)c1)c1cccnc1NCc1ccc(F)c(F)c1 [Example 29, (2-{[(3,4-Difluorophenyl)methyl]amino}(3-pyridyl))-N-[3-(trifluoromethyl)phenyl]carboxamide] | < 50 |
| O=C(Nc1cc(OCC2CCNCC2)cc(C(F)(F)F)c1)c1cccnc1NCc1ccc(F)cc1 [Example 61, 2-(4-Fluoro-benzylamino)-N-[3-(piperidin-4-ylmethoxy)-5-trifluoromethyl-phenyl]-nicotinamide] | < 50 |
| CN1CCC(C(C)(C)c2ccc(NC(=O)c3cccnc3NCc3ccc(F)cc3)cc2)CC1 [Example 65, 2-(4-Fluoro-benzylamino)-N-{4-[1-methyl-1-(1-methyl-piperidin-4-yl)-ethyl]-phenyl}-nicotinamide] | < 50 |
| CC(C)(C)c1ccc(NC(=O)c2cccnc2NCc2ccc(F)cc2)cc1OCC1CCNCC1 [Example 56, N-[4-tert-Butyl-3-(piperidin-4-ylmethoxy)-phenyl]-2-(4-fluoro-benzylamino)-nicotinamide] | < 50 |
| CC(C)(C)c1ccc(NC(=O)c2cccnc2NCc2ccc(F)cc2)cc1 [Example 17, N-(4-tert-Butylphenyl)-2-[(4-fluorobenzyl)amino]nicotinamide] | < 50 |
| CN1CCC(N2CC(C)(C)c3ccc(NC(=O)c4cccnc4NCc4ccc(F)cc4)cc32)CC1 [Example 45, N-[3,3-Dimethyl-1-(1-methyl-piperidin-4-yl)-2,3-dihydro-1H-indol-6-yl]-2-(4-fluoro-benzylamino)-nicotinamide] | < 50 |
| CC(C)c1ccc(NC(=O)c2cccnc2NCc2ccc(F)cc2)cc1 [Example 20, (2-{[(4-Fluorophenyl)methyl]amino}(3-pyridyl))-N-[4-(methylethyl)phenyl]carboxamide] | < 50 |
| CC1(C)CNCc2cc(NC(=O)c3cccnc3NCc3ccc(F)cc3)ccc21 [Example 58, N-(4,4-Dimethyl-1,2,3,4-tetrahydro-isoquinolin-7-yl)-2-(4-fluoro-benzylamino)-nicotinamide] | < 50 |
| O=C(Nc1cc(OC[C@H]2CCCN2)cc(C(F)(F)F)c1)c1cccnc1NCc1ccc(F)cc1 [Example 55, (R) 2-(4-Fluoro-benzylamino)-N-[3-(pyrrolidin-2-ylmethoxy)-5-trifluoromethyl-phenyl]-nicotinamide] | < 50 |
| CCC(C)c1ccc(NC(=O)c2cccnc2NCc2ccc(F)cc2)cc1 (centres unmarked) [Example 16, N-(4-sec-butylphenyl)-2-[(4-fluorobenzyl)amino]nicotinamide] | < 50 |
| O=C(Nc1cccc(C(F)(F)F)c1)c1cccnc1NCc1ccc(F)c(C#CCN2CCOCC2)c1 [Example 40, [2-({[4-Fluoro-3-(3-morpholin-4-ylprop-1-ynyl)phenyl]methyl}amino)(3-pyridyl)]-N-[3-(trifluoromethyl)phenyl]carboxamide] | < 50 |
| CC(=O)N1CC(C)(C)Oc2ccc(NC(=O)c3cccnc3NCc3ccc(F)cc3)cc21 [Example 52, N-(4-Acetyl-2,2-dimethyl-3,4-dihydro-2H-benzo[1,4]oxazin-6-yl)-2-(4-fluoro-benzylamino)-nicotinamide] | < 50 |
| O=C(Nc1cccc(C(F)(F)F)c1)c1cccnc1NCc1ccc(Cl)cc1 [Example 26, (2-{[(4-Chlorophenyl)methyl]amino}(3-pyridyl))-N-[3-(trifluoromethyl)phenyl]carboxamide] | < 50 |
| CN1CCC[C@H]1COc1cc(NC(=O)c2cccnc2NCc2ccc(F)cc2)cc(C(F)(F)F)c1 [Example 63, (S)-2-(4-Fluoro-benzylamino)-N-[3-(1-methyl-pyrrolidin-2-ylmethoxy)-5-trifluoromethyl-phenyl]-nicotinamide] | < 50 |
| O=C(Nc1cccc(C(F)(F)F)c1)c1cccnc1NCc1ccc(F)cc1 [Example 21, (2-{[(4-Fluorophenyl)methyl]amino}(3-pyridyl))-N-[3-(trifluoromethyl)phenyl]carboxamide] | < 50 |
| CC1(C)CN(C2CCNCC2)c2cc(NC(=O)c3cccnc3NCc3ccc(F)cc3)ccc21 [Example 60, N-(3,3-Dimethyl-1-piperidin-4-yl-2,3-dihydro-1H-indol-6-yl)-2-(4-fluoro-benzylamino)-nicotinamide] | < 50 |
| CN1CCC(CN2CC(C)(C)c3ccc(NC(=O)c4cccnc4NCc4ccc(F)cc4)cc32)CC1 [Example 64, N-[3,3-Dimethyl-1-(1-methyl-piperidin-4-ylmethyl)-2,3-dihydro-1H-indol-6-yl]-2-(4-fluoro-benzylamino)-nicotinamide] | < 50 |
| O=C(Nc1ccc(C(F)(F)F)c(OCCN2CCCC2)c1)c1cccnc1NCc1ccc(F)cc1 [Example 42, 2-(4-Fluoro-benzylamino)-N-[3-(2-pyrrolidin-1-yl-ethoxy)-4-trifluoromethyl-phenyl]-nicotinamide] | < 50 |
| CC(C)(C)c1ccc(NC(=O)c2cccnc2NCc2ccc(F)cc2)cc1OC[C@H]1CCCN1 [Example 57, (R) N-[4-tert-Butyl-3-(pyrrolidin-2-ylmethoxy)-phenyl]-2-(4-fluoro-benzylamino)-nicotinamide] | < 50 |
| CN1CC=C(c2cc(NC(=O)c3cccnc3NCc3ccc(F)cc3)ccc2C(C)(C)C)CC1 [Example 39] | < 50 |
| CN(C)CC(=O)N1CC(C)(C)c2ccc(NC(=O)c3cccnc3NCc3ccc(F)cc3)cc21 [Example 46, N-[1-(2-Dimethylamino-acetyl)-3,3-dimethyl-2,3-dihydro-1H-indol-6-yl]-2-(4-fluoro-benzylamino)-nicotinamide] | < 50 |
| CC1(C)CNc2cc(NC(=O)c3cccnc3NCc3ccc(F)cc3)ccc2O1 [Example 62, N-(2,2-Dimethyl-3,4-dihydro-2H-benzo[1,4]oxazin-6-yl)-2-(4-fluoro-benzylamino)-nicotinamide] | < 50 |
| O=C(Nc1cccc(C(F)(F)F)c1)c1cccnc1NCc1ccc(F)cc1F [Example 27, (2-{[(2,4-Difluorophenyl)methyl]amino}(3-pyridyl))-N-[3-(trifluoromethyl)phenyl]carboxamide] | < 50 |
| O=C(Nc1ccc(C(F)(F)C(F)(F)F)c(OC[C@H]2CCCN2)c1)c1cccnc1NCc1ccc(F)cc1 [Example 54, (R) 2-(4-Fluoro-benzylamino)-N-[3-(pyrrolidin-2-ylmethoxy)-4-pentafluoroethyl-phenyl]-nicotinamide] | < 50 |
